Data reported in patent US20160058782A1, “MAILLARD REACTION INHIBITOR” (MORISHITA JINTAN CO., LTD., priority 2011, published 2016).
In brackets after ≈: the same amount, converted by molar mass.

Tested on: Maillard reaction (Human Serum Albumin and Glucose)
Experiment: Measurement of the Maillard reaction inhibitory activity (fluorescent products of human serum albumin and glucose, 60° C., 40 hours)
Conditions: for IC50: human, 40 h; for Maillard reaction inhibitory activity compared with aminoguanidine (positive control) / IC50 values compared with tannic acid, ellagic acid dihydrate and aminoguanidine / Maillard reaction inhibition ratio (%) compared with ellagic acid dihydrate and aminoguanidine: in words; for Maillard reaction inhibitory activity compared with aminoguanidine (positive control): Tables 2 and 3; for Maillard reaction inhibition ratio (%) compared with ellagic acid dihydrate and aminoguanidine: when prepared at lower concentrations
Experimental: A pomegranate extract (containing 50% by mass of polyphenol; manufactured by Morishita Jintan Co., Ltd.), punicalin, punicalagin, oenothein B, eucarbanin B, punicacortein C, a compound represented by the formula (VI), and a compound represented by the formula (VII) were used as samples to be examined. Tannic acid and ellagic acid dihydrate were used for comparison. Aminoguanidine was used as a positive control. […], 300 μg/mL and 1,000 μg/mL, and the Maillard reaction inhibitory activity of the prepared solutions was measured. The inhibitory activity was measured as follows.
Four reaction solutions A to D shown in Table 1 below were prepared using the above-described prepared solutions of the samples, and were incubated at 60° C. for 40 hours to cause the Maillard reaction. Thereafter, 400 μL of the reaction solutions A to D was diluted with 2,400 μL of distilled water and diluted samples were obtained. The fluorescence intensity (the excitation light: 370 nm; the measurement light: 440 nm) of the diluted samples was measured and was expressed as a relative value with respect to the fluorescence intensity of 0.1 μg/mL solution of quinine sulfate that was taken as 100 to calculate the amount of fluorescent products of the Maillard reaction (quantitative value).
Next, the Maillard reaction inhibition ratio (%) with respect to the above-described prepared solutions (concentration (μg/mL)) of the samples was calculated from the obtained quantitative value using the following equation.
Equation: Inhibition ratio (%)=100−[(a−b)/(c−d)]×100 [Formula 1]
where a represents a relative value (−) of the fluorescent products of the Maillard reaction with the reaction solution A calculated in terms of quinine sulfate,
b represents a relative value (−) of the fluorescent products of the Maillard reaction in terms of quinine sulfate when the reaction solution B is used,
c represents a relative value (−) of the fluorescent products of the Maillard reaction in terms of quinine sulfate when the reaction solution C is used, and
d represents a relative value (−) of the fluorescent products of the Maillard reaction in terms of quinine sulfate when the reaction solution D is used.
Thereafter, 50% inhibition ratio (IC50) of each sample was calculated as follows. That is, the inhibition ratio was plotted with respect to the sample concentration, 4-parameter plot was performed, and the concentration showing an inhibition ratio of 50% was taken as IC50.

IC50	SMILES	Maillard reaction inhibition ratio (%) (Conc. 0.01 mg/mL)	Maillard reaction inhibition ratio (%) (Conc. 0.1 mg/mL)	Maillard reaction inhibition ratio (%) (Conc. 1 mg/mL)	Maillard reaction inhibition ratio (%) (Conc. 10 mg/mL)	Maillard reaction inhibition ratio (%) (Conc. 0.03 mg/mL)	Maillard reaction inhibition ratio (%) (Conc. 0.3 mg/mL)	Maillard reaction inhibitory activity compared with aminoguanidine (positive control)	IC50 values compared with tannic acid, ellagic acid dihydrate and aminoguanidine	Maillard reaction inhibition ratio (%) compared with ellagic acid dihydrate and aminoguanidine	Maillard reaction inhibition ratio (%) (Conc. 100 mg/mL)	Maillard reaction inhibition ratio (%) (Conc. 300 mg/mL)	Maillard reaction inhibition ratio (%) (Conc. 1000 mg/mL)
0.31 µg/mL (≈ 0.182 µM)	O=C(OC[C@H]1O[C@@H](OC(=O)c2cc(O)c(O)c(OC(=O)c3cc(O)c(O)c(O)c3)c2)[C@H](OC(=O)c2cc(O)c(O)c(OC(=O)c3cc(O)c(O)c(O)c3)c2)[C@@H](OC(=O)c2cc(O)c(O)c(OC(=O)c3cc(O)c(O)c(O)c3)c2)[C@@H]1OC(=O)c1cc(O)c(O)c(OC(=O)c2cc(O)c(O)c(O)c2)c1)c1cc(O)c(O)c(OC(=O)c2cc(O)c(O)c(O)c2)c1 [Tannic acid, reference compound]	12.7%	48.7%	65.1%	68.8%	–	–	–	–	–	–	–	–
0.34 µg/mL	O=c1oc2c(O)c(O)cc3c(=O)oc4c(O)c(O)cc1c4c23 [Ellagic acid dihydrate, ellagic acid dihydrate, reference compound]	1.9%	12.0%	68.3%	78.4%	2.2%	44.8%	–	–	–	–	–	–
0.43 µg/mL (≈ 0.274 µM)	O=C(OC1C(O)OC2COC(=O)c3cc(Oc4c(C(=O)OC5C(O)OC6COC(=O)c7cc(O)c(O)c(O)c7-c7c(cc(O)c(O)c7O)C(=O)O[C@H]6C5OC(=O)c5cc(O)c(O)c(O)c5)cc(O)c(O)c4O)c(O)c(O)c3-c3c(cc(O)c(O)c3O)C(=O)O[C@H]2C1OC(=O)c1cc(O)c(O)c(O)c1)c1cc(O)c(O)c(O)c1 (stereo partly shown) [Eucarbanin B, eucarbanin B]	–	21.2%	72.9%	79.4%	–	–	superior Maillard reaction inhibitory activity to aminoguanidine	–	–	–	–	–

The remaining lines, values behind:

SMILES	IC50	Maillard reaction inhibition ratio (%) (Conc. 0.01 mg/mL)	Maillard reaction inhibition ratio (%) (Conc. 0.1 mg/mL)	Maillard reaction inhibition ratio (%) (Conc. 1 mg/mL)	Maillard reaction inhibition ratio (%) (Conc. 10 mg/mL)	Maillard reaction inhibition ratio (%) (Conc. 0.03 mg/mL)	Maillard reaction inhibition ratio (%) (Conc. 0.3 mg/mL)	Maillard reaction inhibitory activity compared with aminoguanidine (positive control)	IC50 values compared with tannic acid, ellagic acid dihydrate and aminoguanidine	Maillard reaction inhibition ratio (%) compared with ellagic acid dihydrate and aminoguanidine	Maillard reaction inhibition ratio (%) (Conc. 100 mg/mL)	Maillard reaction inhibition ratio (%) (Conc. 300 mg/mL)	Maillard reaction inhibition ratio (%) (Conc. 1000 mg/mL)
O=C(OC1C(O)OC2COC(=O)c3cc(Oc4c(C(=O)OC5C(O)OC6COC(=O)c7cc(Oc8c(C(=O)OC9C(O)OC%10COC(=O)c%11cc(O)c(O)c(O)c%11-c%11c(cc(O)c(O)c%11O)C(=O)O[C@H]%10C9OC(=O)c9cc(O)c(O)c(O)c9)cc(O)c(O)c8O)c(O)c(O)c7-c7c(cc(O)c(O)c7O)C(=O)O[C@H]6C5OC(=O)c5cc(O)c(O)c(O)c5)cc(O)c(O)c4O)c(O)c(O)c3-c3c(cc(O)c(O)c3O)C(=O)O[C@H]2C1OC(=O)c1cc(O)c(O)c(O)c1)c1cc(O)c(O)c(O)c1 (stereo partly shown) [Compound represented by the formula (VI)]	0.13 µg/mL	–	46.6%	76.7%	95.4%	–	–	superior Maillard reaction inhibitory activity to aminoguanidine	particularly low	–	–	–	–
O=C1OC[C@H]2OC(O)[C@H](O)[C@@H](O)[C@@H]2OC(=O)c2cc(O)c(O)c(O)c2-c2c(O)c(O)c3oc(=O)c4c(c(O)c(O)c5oc(=O)c2c3c54)-c2c1cc(O)c(O)c2O (stereo partly shown) [Punicalin, punicalin]	–	7.6%	32.1%	73.1%	84.9%	6.5%	69.6%	superior Maillard reaction inhibitory activity to aminoguanidine	particularly low	particularly superior	–	–	–
O=C(OC1C(O)OC2COC(=O)c3cc(Oc4c(C(=O)OC5C(O)OC6COC(=O)c7cc(Oc8c(C(=O)OC9C(O)OC%10COC(=O)c%11cc(Oc%12c(C(=O)OC%13C(O)OC%14COC(=O)c%15cc(O)c(O)c(O)c%15-c%15c(cc(O)c(O)c%15O)C(=O)O[C@H]%14C%13OC(=O)c%13cc(O)c(O)c(O)c%13)cc(O)c(O)c%12O)c(O)c(O)c%11-c%11c(cc(O)c(O)c%11O)C(=O)O[C@H]%10C9OC(=O)c9cc(O)c(O)c(O)c9)cc(O)c(O)c8O)c(O)c(O)c7-c7c(cc(O)c(O)c7O)C(=O)O[C@H]6C5OC(=O)c5cc(O)c(O)c(O)c5)cc(O)c(O)c4O)c(O)c(O)c3-c3c(cc(O)c(O)c3O)C(=O)O[C@H]2C1OC(=O)c1cc(O)c(O)c(O)c1)c1cc(O)c(O)c(O)c1 (stereo partly shown)	–	30.4%	40.3%	74.3%	82.5%	–	–	superior Maillard reaction inhibitory activity to aminoguanidine	particularly low	particularly superior	–	–	–
O=C1OC2C(O)OC3COC(=O)c4cc(O)c(O)c(O)c4-c4c(O)c(O)c5oc(=O)c6c(c(O)c(O)c7oc(=O)c4c5c76)-c4c(cc(O)c(O)c4O)C(=O)O[C@H]3C2OC(=O)c2cc(O)c(O)c(O)c2-c2c1cc(O)c(O)c2O (stereo partly shown) [Punicalagin, punicalagin]	–	4.3%	36.2%	73.5%	86.1%	10.9%	71.4%	superior Maillard reaction inhibitory activity to aminoguanidine	particularly low	particularly superior	–	–	–
N=C(N)NN [Aminoguanidine, reference compound]	273 µg/mL (≈ 3690 µM)	–	–	–	–	–	–	–	–	–	40.2%	51.4%	62%
